According to patent publication US12441703B2, “Carboxamides as modulators of sodium channels” (VERTEX PHARMACEUTICALS INCORPORATED, priority 2019, dated 2025):

These molecules were tested against human NaV 1.8 (Homo sapiens, UniProt Q9Y5Y9) (assay: E-VIPR assay for detecting and measuring NaV inhibition properties). Settings: E-VIPR assay conducted in the presence of human serum; HEK cells expressing truncated human NaV 1.8; read-out: IC50.
Assay type: cell-based
In short: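 Membrane-potential (coumarin/oxonol) readout after 10 s of 10 Hz biphasic electrical stimulation on E-VIPR. Compounds: 11-point 3-fold dilutions, […], 0.625% DMSO, 30 min at room temperature, human serum optional. Cells: HEK expressing truncated human NaV1.8 co-transduced with KIR2.1.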

human NaV 1.8, sequence (Q9Y5Y9 whole entry, looked up, the tested form may be a part): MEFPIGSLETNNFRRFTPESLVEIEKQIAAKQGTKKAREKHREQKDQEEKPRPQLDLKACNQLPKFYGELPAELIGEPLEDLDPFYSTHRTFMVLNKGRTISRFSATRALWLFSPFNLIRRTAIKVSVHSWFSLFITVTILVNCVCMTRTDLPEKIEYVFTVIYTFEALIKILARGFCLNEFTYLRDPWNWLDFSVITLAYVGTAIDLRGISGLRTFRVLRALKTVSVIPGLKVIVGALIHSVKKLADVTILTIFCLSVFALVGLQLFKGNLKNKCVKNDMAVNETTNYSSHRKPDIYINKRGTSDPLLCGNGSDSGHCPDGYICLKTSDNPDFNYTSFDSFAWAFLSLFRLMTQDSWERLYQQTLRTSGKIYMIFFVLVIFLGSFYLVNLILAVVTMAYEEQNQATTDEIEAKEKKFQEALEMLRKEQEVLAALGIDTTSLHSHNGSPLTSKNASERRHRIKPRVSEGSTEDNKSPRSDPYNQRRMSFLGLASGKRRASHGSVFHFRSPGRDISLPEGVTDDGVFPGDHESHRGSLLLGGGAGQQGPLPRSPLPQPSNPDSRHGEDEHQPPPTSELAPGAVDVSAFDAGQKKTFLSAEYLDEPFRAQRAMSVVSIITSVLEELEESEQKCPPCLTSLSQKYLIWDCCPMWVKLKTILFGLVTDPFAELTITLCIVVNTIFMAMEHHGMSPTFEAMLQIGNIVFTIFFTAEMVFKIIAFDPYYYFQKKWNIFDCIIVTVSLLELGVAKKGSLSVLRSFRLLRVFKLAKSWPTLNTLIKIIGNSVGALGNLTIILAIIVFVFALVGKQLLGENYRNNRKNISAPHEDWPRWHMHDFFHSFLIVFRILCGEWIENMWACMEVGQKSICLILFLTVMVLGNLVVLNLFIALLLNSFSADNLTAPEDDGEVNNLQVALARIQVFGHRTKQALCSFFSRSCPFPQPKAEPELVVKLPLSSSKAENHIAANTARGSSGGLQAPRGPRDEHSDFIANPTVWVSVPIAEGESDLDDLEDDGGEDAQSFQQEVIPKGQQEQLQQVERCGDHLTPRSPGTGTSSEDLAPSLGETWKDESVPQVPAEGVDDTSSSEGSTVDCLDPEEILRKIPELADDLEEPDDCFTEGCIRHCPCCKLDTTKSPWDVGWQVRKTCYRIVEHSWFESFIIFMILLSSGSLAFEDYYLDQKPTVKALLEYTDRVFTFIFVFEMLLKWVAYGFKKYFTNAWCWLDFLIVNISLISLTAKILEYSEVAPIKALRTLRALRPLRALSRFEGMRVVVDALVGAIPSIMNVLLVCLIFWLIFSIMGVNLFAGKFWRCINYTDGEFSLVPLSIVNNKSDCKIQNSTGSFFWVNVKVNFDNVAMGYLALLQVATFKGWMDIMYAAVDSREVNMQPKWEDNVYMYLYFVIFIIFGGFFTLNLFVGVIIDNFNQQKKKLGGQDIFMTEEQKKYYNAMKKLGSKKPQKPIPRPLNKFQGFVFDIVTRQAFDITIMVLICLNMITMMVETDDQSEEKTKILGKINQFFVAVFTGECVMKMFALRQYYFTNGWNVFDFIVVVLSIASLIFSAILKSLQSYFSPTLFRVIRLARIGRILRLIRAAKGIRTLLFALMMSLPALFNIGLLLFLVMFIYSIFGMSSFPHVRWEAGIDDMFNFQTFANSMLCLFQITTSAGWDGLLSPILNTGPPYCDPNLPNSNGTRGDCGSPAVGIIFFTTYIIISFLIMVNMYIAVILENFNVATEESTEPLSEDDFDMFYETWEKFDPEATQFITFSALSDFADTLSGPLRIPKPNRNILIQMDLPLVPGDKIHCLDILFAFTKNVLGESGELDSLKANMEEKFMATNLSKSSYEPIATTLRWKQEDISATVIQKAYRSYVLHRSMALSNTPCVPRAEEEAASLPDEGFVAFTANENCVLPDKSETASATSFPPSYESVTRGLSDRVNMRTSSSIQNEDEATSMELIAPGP

Compared with Cc1cc(OC(F)(F)F)cc(Oc2ccc(OC(F)(F)F)cc2Cl)c1C(=O)Nc1ccc(C(N)=O)nc1 [Compound 243, 5-[[2-[2-chloro-4-(trifluoromethoxy)phenoxy]-6-methyl-4-(trifluoromethoxy)benzoyl]amino]pyridine-2-carboxamide], COc1cc(OC(F)(F)F)ccc1Oc1cc(OC(F)(F)F)cc(C)c1C(=O)Nc1ccc(C(N)=O)nc1 [Compound 245, 5-[[2-[2-methoxy-4-(trifluoromethoxy)phenoxy]-6-methyl-4-(trifluoromethoxy)benzoyl]amino]pyridine-2-carboxamide] is 5.6-fold lower in IC50: 1.85 µM for the first, 0.333 µM for the second. The second is the more potent here.

Going from COc1cc(OC(F)(F)F)ccc1Oc1ccc(C(F)F)c(C)c1C(=O)Nc1ccnc(C(N)=O)c1 [Compound 244, 4-[[3-(difluoromethyl)-6-[2-methoxy-4-(trifluoromethoxy)phenoxy]-2-methyl-benzoyl]amino]pyridine-2-carboxamide] to COc1cc(OC(F)(F)F)ccc1Oc1ccc(Cl)c(C)c1C(=O)Nc1ccnc(C(N)=O)c1 [Compound 261, 4-[[3-chloro-6-[2-methoxy-4-(trifluoromethoxy)phenoxy]-2-methyl-benzoyl]amino]pyridine-2-carboxamide], the IC50 falls from 0.017 µM to 0.008 µM (2.1-fold).

COc1cc(OC(F)(F)F)ccc1Oc1cc(C(F)(F)F)c(C2CC2)nc1C(=O)Nc1ccnc(C(N)=O)c1 [Compound 246, N-(2-carbamoyl-4-pyridyl)-6-cyclopropyl-3-[2-methoxy-4-(trifluoromethoxy)phenoxy]-5-(trifluoromethyl)pyridine-2-carboxamide] and COc1cc(OC(F)(F)F)ccc1Oc1cc(C(F)(F)F)c(C)nc1C(=O)Nc1ccnc(C(N)=O)c1 [Compound 247, N-(2-carbamoyl-4-pyridyl)-3-[2-methoxy-4-(trifluoromethoxy)phenoxy]-6-methyl-5-(trifluoromethyl)pyridine-2-carboxamide] are within 1.5-fold of each other in IC50: 0.14 µM for the first, 0.19 µM for the second.

Going from COc1cc(OC(F)(F)F)ccc1Oc1cc(C2CC2)cc(C)c1C(=O)Nc1ccnc(C(N)=O)c1 [Compound 248, 4-[[4-cyclopropyl-2-[2-methoxy-4-(trifluoromethoxy)phenoxy]-6-methyl-benzoyl]amino]pyridine-2-carboxamide] to COc1cc(OC(F)(F)F)ccc1Oc1cc(C2CC2)c(F)c(C)c1C(=O)Nc1ccnc(C(N)=O)c1 [Compound 264, 4-[[4-cyclopropyl-3-fluoro-6-[2-methoxy-4-(trifluoromethoxy)phenoxy]-2-methyl-benzoyl]amino]pyridine-2-carboxamide], the IC50 rises from 0.027 µM to 0.052 µM (1.9-fold). The first is the more potent here.

Going from NC(=O)c1cc(NC(=O)c2c(Oc3ccc(OC(F)(F)F)cc3O)ccc(C(F)(F)F)c2F)cc[n+]1[O-] [Compound 249, 4-[[2-fluoro-6-[2-hydroxy-4-(trifluoromethoxy)phenoxy]-3-(trifluoromethyl)benzoyl]amino]-1-oxido-pyridin-1-ium-2-carboxamide] to COc1cc(OC(F)(F)F)ccc1Oc1ccc(C(F)(F)F)c(C#N)c1C(=O)Nc1ccnc(C(N)=O)c1 [Compound 269, 4-[[2-cyano-6-[2-methoxy-4-(trifluoromethoxy)phenoxy]-3-(trifluoromethyl)benzoyl]amino]pyridine-2-carboxamide], the IC50 falls from 2.93 µM to 0.037 µM (79-fold).

NC(=O)c1cc(NC(=O)c2c(-c3ccc(OC(F)(F)F)cc3)ccc(C(F)(F)F)c2F)ccn1 [Compound 250, 4-[[2-fluoro-6-[4-(trifluoromethoxy)phenyl]-3-(trifluoromethyl)benzoyl]amino]pyridine-2-carboxamide] and NC(=O)c1cc(NC(=O)c2ccc(C(F)(F)F)cc2-c2ccc(OC(F)(F)F)cc2)ccn1 [Compound 254, 4-[[2-[4-(trifluoromethoxy)phenyl]-4-(trifluoromethyl)benzoyl]amino]pyridine-2-carboxamide] cannot be ordered by IC50: > 3 µM for the first, > 3 µM for the second.

COc1cc(F)ccc1-c1ccc(C(F)(F)F)c(F)c1C(=O)Nc1ccnc(C(N)=O)c1 [Compound 251, 4-[[2-fluoro-6-(4-fluoro-2-methoxy-phenyl)-3-(trifluoromethyl)benzoyl]amino]pyridine-2-carboxamide] and COc1cc(F)ccc1-c1ccc(C(F)(F)F)cc1C(=O)Nc1ccnc(C(N)=O)c1 [Compound 252, 4-[[2-(4-fluoro-2-methoxy-phenyl)-5-(trifluoromethyl)benzoyl]amino]pyridine-2-carboxamide] cannot be ordered by IC50: > 3 µM for the first, > 3 µM for the second.

COc1cc(F)ccc1-c1ccc(C(F)(F)F)cc1C(=O)Nc1ccc(F)c(C(N)=O)c1 [Compound 253, N-(3-carbamoyl-4-fluoro-phenyl)-2-(4-fluoro-2-methoxy-phenyl)-5-(trifluoromethyl)benzamide] and NC(=O)c1cc(NC(=O)c2cc(Cl)ccc2Oc2ccc(OC(F)(F)F)cn2)ccc1F [Compound 256, 5-[[5-chloro-2-[[5-(trifluoromethoxy)-2-pyridyl]oxy]benzoyl]amino]-2-fluoro-benzamide] cannot be ordered by IC50: > 3 µM for the first, > 3 µM for the second.

First: COc1cc(OC(F)(F)F)ccc1Oc1cc(C(F)(F)F)cc(Br)c1C(=O)Nc1ccnc(C(N)=O)c1 [Compound 255, 4-[[2-bromo-6-[2-methoxy-4-(trifluoromethoxy)phenoxy]-4-(trifluoromethyl)benzoyl]amino]pyridine-2-carboxamide]
Second: COc1cc(OC(F)(F)F)ccc1Oc1ccc(F)c(F)c1C(=O)Nc1ccnc(C(N)=O)c1 [Compound 259, 4-[[2,3-difluoro-6-[2-methoxy-4-(trifluoromethoxy)phenoxy]benzoyl]amino]pyridine-2-carboxamide]
The IC50 of the first is higher: > 3 µM for the first, 0.059 µM for the second.

Going from COc1cc(OC(F)(F)F)ccc1Oc1ccc(C2CCC2)c(C)c1C(=O)Nc1ccnc(C(N)=O)c1 [Compound 257, 4-[[3-cyclobutyl-6-[2-methoxy-4-(trifluoromethoxy)phenoxy]-2-methyl-benzoyl]amino]pyridine-2-carboxamide] to COc1cc(OC(F)(F)F)ccc1Oc1cc(OC)c(Cl)c(C)c1C(=O)Nc1ccnc(C(N)=O)c1 [Compound 265, 4-[[3-chloro-4-methoxy-6-[2-methoxy-4-(trifluoromethoxy)phenoxy]-2-methyl-benzoyl]amino]pyridine-2-carboxamide], the IC50 rises from 0.008 µM to 0.035 µM (4.4-fold).

First: COc1c(C(F)(F)F)ccc(Oc2cccc(C3CCCCC3)c2)c1C(=O)Nc1ccnc(C(N)=O)c1 [Compound 258, 4-[[6-(3-cyclohexylphenoxy)-2-methoxy-3-(trifluoromethyl)benzoyl]amino]pyridine-2-carboxamide]
Second: CCc1nc(C(=O)Nc2ccnc(C(N)=O)c2)c(Oc2ccc(OC(F)(F)F)cc2OC)cc1C(F)(F)F [Compound 274, N-(2-carbamoyl-4-pyridyl)-6-ethyl-3-[2-methoxy-4-(trifluoromethoxy)phenoxy]-5-(trifluoromethyl)pyridine-2-carboxamide]
The IC50 of the first is higher: > 3 µM for the first, 0.0393 µM for the second.

First: COc1cc(OC(F)(F)F)ccc1Oc1ccc(F)c(F)c1C(=O)Nc1cc(C(N)=O)ncc1C [Compound 260, 4-[[2,3-difluoro-6-[2-methoxy-4-(trifluoromethoxy)phenoxy]benzoyl]amino]-5-methyl-pyridine-2-carboxamide]
Second: COc1cc(OC(F)(F)F)ccc1Oc1cnc(C(F)(F)F)c(C)c1C(=O)Nc1cc(C(N)=O)ncc1C [Compound 271, N-(2-carbamoyl-5-methyl-4-pyridyl)-5-[2-methoxy-4-(trifluoromethoxy)phenoxy]-3-methyl-2-(trifluoromethyl)pyridine-4-carboxamide]
The IC50 of the first is 2.8-fold higher: 0.066 µM for the first, 0.024 µM for the second.

First: COc1cc(OC(F)(F)F)ccc1Oc1cc(F)c(F)c(F)c1C(=O)Nc1cnc(C(N)=O)nc1 [Compound 262, 5-[[2,3,4-trifluoro-6-[2-methoxy-4-(trifluoromethoxy)phenoxy]benzoyl]amino]pyrimidine-2-carboxamide]
Second: COc1cc(OC(F)(F)F)ccc1Oc1cnc(C(F)(F)F)c(C)c1C(=O)Nc1cnc(C(N)=O)nc1 [Compound 270, 5-[[5-[2-methoxy-4-(trifluoromethoxy)phenoxy]-3-methyl-2-(trifluoromethyl)pyridine-4-carbonyl]amino]pyrimidine-2-carboxamide]
The IC50 of the first is 1.5-fold higher: 0.05 µM for the first, 0.033 µM for the second. The second is the more potent here.

Compared with COc1cc(OC(F)(F)F)ccc1Oc1cc(OC)c(F)c(F)c1C(=O)Nc1ccnc(C(N)=O)c1 [Compound 263, 4-[[2,3-difluoro-4-methoxy-6-[2-methoxy-4-(trifluoromethoxy)phenoxy]benzoyl]amino]pyridine-2-carboxamide], COc1cc(OC(F)(F)F)ccc1Oc1cc(OC)c(Cl)c(F)c1C(=O)Nc1ccnc(C(N)=O)c1 [Compound 266, 4-[[3-chloro-2-fluoro-4-methoxy-6-[2-methoxy-4-(trifluoromethoxy)phenoxy]benzoyl]amino]pyridine-2-carboxamide] is 7.1-fold lower in IC50: 0.02 µM for the first, 0.0028 µM for the second. The second is the more potent here.

First: COc1cc(OC(F)(F)F)ccc1Oc1cc(Cl)cc(F)c1C(=O)Nc1cc(C(N)=O)[n+]([O-])cc1C [Compound 267, 4-[[4-chloro-2-fluoro-6-[2-methoxy-4-(trifluoromethoxy)phenoxy]benzoyl]amino]-5-methyl-1-oxido-pyridin-1-ium-2-carboxamide]
Second: COc1cc(OC(F)(F)F)ccc1Oc1ccc(Cl)c(F)c1C(=O)Nc1cc(C(N)=O)[n+]([O-])cc1C [Compound 268, 4-[[3-chloro-2-fluoro-6-[2-methoxy-4-(trifluoromethoxy)phenoxy]benzoyl]amino]-5-methyl-1-oxido-pyridin-1-ium-2-carboxamide]
The IC50 of the first is 3-fold higher: 0.084 µM for the first, 0.028 µM for the second.

Going from COc1cc(OC(F)(F)F)ccc1Oc1cc(C(F)(F)F)nc(OC)c1C(=O)Nc1cc(C(N)=O)ncc1C [Compound 272, N-(2-carbamoyl-5-methyl-4-pyridyl)-2-methoxy-4-[2-methoxy-4-(trifluoromethoxy)phenoxy]-6-(trifluoromethyl)pyridine-3-carboxamide] to CNC(=O)c1cc(NC(=O)c2c(Oc3ccc(OC(F)(F)F)cc3OC)cnc(C(F)(F)F)c2OC)ccn1 [Compound 273, 3-methoxy-5-[2-methoxy-4-(trifluoromethoxy)phenoxy]-N-[2-(methylcarbamoyl)-4-pyridyl]-2-(trifluoromethyl)pyridine-4-carboxamide], the IC50 falls from 0.089 µM to 0.059 µM (1.5-fold).
